Values quoted from earlier work as cited in patent publication US20240010628A1, “METHODS OF MANUFACTURE OF R-MDMA” (Mind Medicine, Inc., priority 2022, published 2024).

Assays:
[1] = system: parkinsonian animal model
[2] = biological target: 5-HT2A receptors (Homo sapiens, UniProt P28223)
[3] = system: dopamine
[4] = in vivo
[5] = biological target: SERT (Homo sapiens, UniProt P31645)
[6] = biological target: DAT (Homo sapiens, UniProt Q01959)
DAT, sequence (Q01959 whole entry, species assumed): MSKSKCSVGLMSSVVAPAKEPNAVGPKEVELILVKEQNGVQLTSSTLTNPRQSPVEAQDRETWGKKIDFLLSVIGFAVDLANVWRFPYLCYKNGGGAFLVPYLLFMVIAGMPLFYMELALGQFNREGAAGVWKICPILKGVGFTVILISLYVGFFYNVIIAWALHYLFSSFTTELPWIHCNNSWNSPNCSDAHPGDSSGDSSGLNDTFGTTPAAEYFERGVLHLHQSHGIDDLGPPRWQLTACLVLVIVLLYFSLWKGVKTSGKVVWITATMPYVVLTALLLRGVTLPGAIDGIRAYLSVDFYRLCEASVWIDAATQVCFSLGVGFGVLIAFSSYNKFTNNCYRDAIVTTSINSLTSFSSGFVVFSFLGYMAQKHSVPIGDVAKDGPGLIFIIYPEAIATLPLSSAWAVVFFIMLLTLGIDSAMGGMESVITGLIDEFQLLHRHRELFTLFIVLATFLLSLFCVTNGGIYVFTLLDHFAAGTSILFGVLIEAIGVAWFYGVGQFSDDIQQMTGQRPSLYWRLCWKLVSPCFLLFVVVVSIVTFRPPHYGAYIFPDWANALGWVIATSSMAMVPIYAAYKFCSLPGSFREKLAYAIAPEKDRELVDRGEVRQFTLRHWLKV

5-HT2A receptors, sequence (P28223 whole entry): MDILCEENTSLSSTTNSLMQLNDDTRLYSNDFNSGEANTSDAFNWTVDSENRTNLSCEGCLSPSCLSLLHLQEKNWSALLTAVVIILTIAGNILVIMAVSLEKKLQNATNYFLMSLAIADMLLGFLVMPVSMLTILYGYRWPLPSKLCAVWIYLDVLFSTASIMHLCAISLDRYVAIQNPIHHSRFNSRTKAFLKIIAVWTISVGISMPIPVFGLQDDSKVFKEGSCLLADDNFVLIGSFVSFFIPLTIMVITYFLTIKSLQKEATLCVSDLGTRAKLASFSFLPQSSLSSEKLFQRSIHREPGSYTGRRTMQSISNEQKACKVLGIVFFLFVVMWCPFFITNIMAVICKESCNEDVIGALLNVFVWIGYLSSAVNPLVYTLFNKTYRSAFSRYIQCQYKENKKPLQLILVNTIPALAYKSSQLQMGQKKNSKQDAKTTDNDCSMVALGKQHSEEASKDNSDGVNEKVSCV
SERT, sequence (P31645 whole entry, species assumed): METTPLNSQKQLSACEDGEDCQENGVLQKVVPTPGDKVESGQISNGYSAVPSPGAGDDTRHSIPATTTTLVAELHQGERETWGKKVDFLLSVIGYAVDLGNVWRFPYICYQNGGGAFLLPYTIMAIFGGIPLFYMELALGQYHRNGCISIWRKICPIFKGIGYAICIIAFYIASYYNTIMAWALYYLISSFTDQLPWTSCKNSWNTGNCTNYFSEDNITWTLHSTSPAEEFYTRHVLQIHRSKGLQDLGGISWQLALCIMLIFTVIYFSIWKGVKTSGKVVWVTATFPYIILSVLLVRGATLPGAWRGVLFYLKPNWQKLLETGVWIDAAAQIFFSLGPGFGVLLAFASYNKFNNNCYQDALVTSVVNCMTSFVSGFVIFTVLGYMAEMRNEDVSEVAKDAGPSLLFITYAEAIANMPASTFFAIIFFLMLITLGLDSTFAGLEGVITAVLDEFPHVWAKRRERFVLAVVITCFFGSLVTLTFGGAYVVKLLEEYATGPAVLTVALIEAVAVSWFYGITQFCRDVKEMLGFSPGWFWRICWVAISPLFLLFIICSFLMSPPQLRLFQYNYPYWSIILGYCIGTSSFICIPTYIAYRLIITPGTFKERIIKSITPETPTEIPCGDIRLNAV

Row | Compound | severity of peak-dose dyskinesia / dyskinesia [1] | total duration of ON-time [1] | duration of good ON-time [1] | selectivity for 5-HT2A receptors [2] | efficacy as a releaser of dopamine [3] | hyperthermia [4] | affinity for SERT [5] | affinity for DAT [6]
1 | CNC(C)Cc1ccc2c(c1)OCO2 (racemic) [racemic MDMA, 3,4-Methylenedioxymethamphetamine, reference compound] | reducing dyskinesia | extending ON-time |  |  |  |  |  | 
2 | CN[C@H](C)Cc1ccc2c(c1)OCO2 [R-MDMA, (R)-1-(benzo[d][1,3]dioxol-5-yl)-N-methylpropan-2-amine] | decreased |  | increased | selective compound for 5-HT2A receptors | low efficacy | does not produce hyperthermia |  | 
3 | CN[C@@H](C)Cc1ccc2c(c1)OCO2 [S-MDMA, (S)-1-(benzo[d][1,3]dioxol-5-yl)-N-methylpropan-2-amine] | exacerbated | extended |  |  |  |  | high affinity | moderate affinity
